MIC data for three compounds are collected here from ChEMBL document CHEMBL1275420, “Transfer of embB codon 306 mutations into clinical Mycobacterium tuberculosis strains alters susceptibility to ethambutol, isoniazid, and rifampin” (2008).

Values after ≈ are worked out from the molar mass of the structure shown.

The test system of the experiment is Mycobacterium tuberculosis. The experiment can be described thus: Antimycobacterial activity against Mycobacterium tuberculosis isolate 210 at 37 degC after 10 to 11 days by radiometric Bactec 460TB method. Format: functional.
`CC[C@@H](CO)NCCN[C@@H](CC)CO` [ETHAMBUTOL] came in with an MIC of 2 µg/mL (≈ 9.79 µM).
`NNC(=O)c1ccncc1` [ISONIAZID] came in with a minimum inhibitory concentration (MIC) of 0.05 µg/mL (≈ 0.365 µM). This MIC lies about 40-fold lower than the previous one.
The value for `CO[C@H]1/C=C/O[C@@]2(C)Oc3c(C)c(O)c4c(O)c(c(/C=N/N5CCN(C)CC5)c(O)c4c3C2=O)NC(=O)/C(C)=C\C=C\[C@H](C)[C@H](O)[C@@H](C)[C@@H](O)[C@@H](C)[C@H](OC(C)=O)[C@@H]1C` [RIFAMPIN] was 0.05 µg/mL (≈ 0.0608 µM).
